In patent US20210070747A1, “2(1H)-QUINOLINONE DERIVATIVE” (priority 2017, published 2021):
pIC50: −log10 of the molar value. In brackets after ≈: the same amount, converted by molar mass.

How the values were obtained:
E. Coli ATCC 25922 = experiment: Test for evaluating antibacterial activity (E. coli), broth microdilution MIC; format: cell-based; conditions: Escherichia coli, ATCC25922; 35° C., 18 hours, cation-adjusted Mueller-Hinton medium
Procedure, shortened: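 Broth microdilution per modified CLSI method in cation-adjusted Mueller-Hinton medium. Inoculum from overnight heart infusion agar growth, McFarland 0.5 suspension diluted 10-fold; incubation 35° C for 18 hours. MIC taken as lowest drug concentration with no visible growth.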

E. coli DNA gyrase [1] = target: T1, E. coli DNA gyrase (Escherichia coli, UniProt P0AES6); experiment: Test for evaluating the activity of inhibiting E. coli DNA gyrase enzyme (Method 1, supercoiling, Inspiralis enzyme); format: biochemical
T1 construct: made in house; host or cells: E. coli BL21 (DE3)
Method: Test Example 1-1 Test for Evaluating the Activity of Inhibiting E. coli DNA Gyrase Enzyme (Method 1)
The enzymatic activity of E. coli DNA gyrase was measured by a method comprising reacting DNA gyrase and its substrate, relaxed pBR322 (Inspiralis), in the presence of ATP and detecting the post-reaction supercoiled pBR322/relaxed pBR322 ratio with H19 (Profoldin).
Specifically, to 1 ng/μL of relaxed pBR322, E. coli DNA gyrase enzyme (Inspiralis) was added at a final concentration of 0.006 U/μL and the mixture was incubated for 60 minutes at room temperature. This reaction was carried out in 20 mmol/L tris-HCl buffered solution (pH 8.0) comprising 0.5 mmol/L ATP, 0.005% bridge 35, 35 mmol/L ammonium acetate, 8 mmol/L magnesium chloride, 4.6% glycerol, and 1 mmol/L dithiothreitol. To the reaction mixture, H19 was added to bring the reaction to an end; thereafter, the supercoiled pBR322/relaxed pBR322 ratio was detected at excitation wavelength/emission wavelength=485 nm/535 nm. An inhibition curve was obtained by allowing the analyte compound to be present at varying concentrations during the reaction described above. […] The test results of interest are shown in [Table 20-1] and [Table 20-2].

[2] = system: N. gonorrhoeae ATCC 49226; experiment: Test for evaluating antibacterial activity (N. gonorrhoeae), broth microdilution MIC; format: cell-based; conditions: Neisseria gonorrhoeae, ATCC49226; 35° C., 24 hours, gonococcal broth
Method: Minimum inhibitory concentration (MIC) was measured using the broth microdilution method described below in accordance with a modification of the method of Geers et al. (Antimicrob. Agents. Chemother. (1989), 33, 233-234).
After sterilization, BD. Difco supplement C was added to give a final concentration of 1%, whereby a gonococcal broth was prepared.
Bacterial cells under test were cultured overnight on a chocolate II agar medium, scraped off and suspended at a concentration equivalent to McFarland 0.5 turbidity; the suspension thus obtained was diluted 5 folds to give a liquid inoculum. The inoculum (0.005 mL) was inoculated on a gonococcal broth containing the analyte compound and cultured at 35° C. for 24 hours. A minimum drug concentration at which no bacterial growth was macroscopically visible was designated MIC.

E. coli DNA gyrase [3] = target: T1, E. coli DNA gyrase; experiment: Test for evaluating the activity of inhibiting E. coli DNA gyrase enzyme (Method 2, supercoiling, recombinant gyrA/gyrB complex); format: biochemical
Procedure, shortened: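 Recombinant E. coli gyrA/gyrB complex (His-tagged, BL21(DE3)-expressed, Ni-NTA purified; 0.135 nmol/mL final) supercoiled relaxed pBR322 (1 ng/μL) with 0.5 mmol/L ATP in pH 8.0 Tris buffer, 60 min at room temperature. H19 stopped the reaction; supercoiled/relaxed ratio read at 485/535 nm, inhibition curves built from varying compound concentrations.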

[4] = Method 1, read-out: E. Coli Gyrase supercoiling IC50
[5] = Method 2, read-out: E. Coli Gyrase supercoiling IC50

CNc1cccc2cc(C(=O)NC3CCN(c4ncc(C(=O)O)s4)C3)c(=O)[nH]c12 (stereo not shown) [Example 9, 2-(3-{[8-(methylamino)-2-oxo-1,2-dihydroquinoline-3-carbonyl]amino}pyrrolidine-1-yl)-1,3-thiazole-5-carboxylic acid]
MIC (E. Coli ATCC 25922): > 64 µg/mL
pIC50 (E. coli DNA gyrase [1]; [4]): 7.29

CNc1cccc2cc(C(=O)NC3CN(c4ncc(C(=O)O)s4)C3)c(=O)[nH]c12 [Example 10, 2-(3-{[8-(methylamino)-2-oxo-1,2-dihydroquinoline-3-carbonyl]amino}azetidine-1-yl)-1,3-thiazole-5-carboxylic acid]
MIC (E. Coli ATCC 25922): > 64 µg/mL
pIC50 (E. coli DNA gyrase [1]; [4]): 6.34

CNc1cccc2cc(C(=O)Nc3ccccc3)c(=O)[nH]c12 [Example 11, 8-(methylamino)-2-oxo-N-phenyl-1,2-dihydroquinoline-3-carboxamide]
MIC (E. Coli ATCC 25922): > 64 µg/mL
pIC50 (E. coli DNA gyrase [1]; [4]): 6.61

CNc1cccc2cc(C(=O)Nc3cncnc3)c(=O)[nH]c12 [Example 12, 8-(methylamino)-2-oxo-N-(pyrimidine-5-yl)-1,2-dihydroquinoline-3-carboxamide]
MIC (E. Coli ATCC 25922): > 64 µg/mL
pIC50 (E. coli DNA gyrase [1]; [4]): 7.68

CNc1cccc2cc(C(=O)N[C@@H](Cc3c[nH]cn3)C(=O)O)c(=O)[nH]c12 [Example 13, N-[8-(methylamino)-2-oxo-1,2-dihydroquinoline-3-carbonyl]-L-histidine-trifluoroacetate]
pIC50 (E. coli DNA gyrase [1]; [4]): 4.50

CNc1cccc2cc(C(=O)Nc3cccnc3)c(=O)[nH]c12 [Example 15, 8-(methylamino)-2-oxo-N-(pyridine-3-yl)-1,2-dihydroquinoline-3-carboxamide]
MIC (E. Coli ATCC 25922): > 64 µg/mL
pIC50 (E. coli DNA gyrase [1]; [4]): 7.45

CNc1cccc2cc(C(=O)Nc3cnc(C(=O)O)nc3)c(=O)[nH]c12 [Example 20, 5-{[8-(methylamino)-2-oxo-1,2-dihydroquinoline-3-carbonyl]amino}pyrimidine-2-carboxylic acid]
MIC (E. Coli ATCC 25922): > 16 µg/mL
pIC50 (E. coli DNA gyrase [1]; [4]): 8.92

CNc1cccc2cc(C(=O)NCc3ccccn3)c(=O)[nH]c12 [Example 21, 8-(methylamino)-2-oxo-N-[(pyridine-2-yl)methyl]-1,2-dihydroquinoline-3-carboxamide]
inhibition at 3 µM (E. coli DNA gyrase [1]; Method 1, at 3000 nM): 44%

CNc1cccc2cc(C(=O)NC3CCN(c4nccs4)C3)c(=O)[nH]c12 (stereo not shown) [Example 23, 8-(methylamino)-2-oxo-N-[1-(1,3-thiazole-2-yl)pyrrolidine-3-yl]-1,2-dihydroquinoline-3-carboxamide]
MIC (E. Coli ATCC 25922): > 4 µg/mL
pIC50 (E. coli DNA gyrase [1]; [4]): 6.16

CNc1cccc2cc(C(=O)Nc3cnc(NC(=O)OC(C)(C)C)s3)c(=O)[nH]c12 [Example 24, tert-butyl(5-{[8-(methylamino)-2-oxo-1,2-dihydroquinoline-3-carbonyl]amino}-1,3-thiazole-2-yl)carbamate]
MIC (E. Coli ATCC 25922): > 32 µg/mL
pIC50 (E. coli DNA gyrase [1]; [4]): 6.19

CNc1cccc2cc(C(=O)Nc3cnc(N)s3)c(=O)[nH]c12.Cl [Example 25, N-(2-Amino-1,3-thiazol-5-yl)-8-(methylamino)-2-oxo-1,2-dihydroquinoline-3-carboxamide-hydrochloride]
MIC (E. Coli ATCC 25922): > 16 µg/mL
pIC50 (E. coli DNA gyrase [1]): 7.18

CNc1cccc2cc(C(=O)Nc3ccc(C(=O)NCCN4CCOCC4)cc3)c(=O)[nH]c12 [Example 26, 8-(methylamino)-N-(4-{[2-(morpholine-4-yl)ethyl]carbamoyl}phenyl)-2-oxo-1,2-dihydroquinoline-3-carboxamide]
MIC (E. Coli ATCC 25922): > 32 µg/mL
pIC50 (E. coli DNA gyrase [1]; [4]): 7.75

CNc1cccc2cc(C(=O)NCc3csc(NC(=O)OC(C)(C)C)n3)c(=O)[nH]c12 [Example 27, tert-butyl[4-({[8-(methylamino)-2-oxo-1,2-dihydroquinoline-3-carbonyl]amino}methyl)-1,3-thiazole-2-yl]carbamate]
MIC (E. Coli ATCC 25922): > 8 µg/mL
pIC50 (E. coli DNA gyrase [1]; [4]): 6.59

CNc1cccc2cc(C(=O)NCCc3cccnc3)c(=O)[nH]c12 [Example 30, 8-(methylamino)-2-oxo-N-[2-(pyridine-3-yl)ethyl]-1,2-dihydroquinoline-3-carboxamide]
MIC (E. Coli ATCC 25922): > 16 µg/mL
pIC50 (E. coli DNA gyrase [1]; [4]): 6.67

CNc1cccc2cc(C(=O)NCc3csc(N)n3)c(=O)[nH]c12.Cl [Example 31, N-[(2-amino-1,3-thiazole-4-yl)methyl]-8-(methylamino)-2-oxo-1,2-dihydroquinoline-3-carboxamide-hydrochloride]
MIC (E. Coli ATCC 25922): > 16 µg/mL
pIC50 (E. coli DNA gyrase [1]): 6.49

CNc1cc(F)cc2cc(C(=O)NCCc3ccccc3)c(=O)[nH]c12 [Example 78, 6-fluoro-8-(methylamino)-2-oxo-N-(2-phenylethyl)-1,2-dihydroquinoline-3-carboxamide]
inhibition at 0.3 µM (E. coli DNA gyrase [1]; Method 1, at 300 nM): 12%

CNc1cc(F)cc2cc(C(=O)NCCc3ccccn3)c(=O)[nH]c12 [Example 79, 6-fluoro-8-(methylamino)-2-oxo-N-[2-(pyridine-2-yl)ethyl]-1,2-dihydroquinoline-3-carboxamide]
pIC50 (E. coli DNA gyrase [1]; [4]): 6.76

CNc1cc(F)cc2c(O)c(C(=O)Nc3ccc(C(=O)O)cc3CN3CCCC3)c(=O)[nH]c12.O=CO [Example 157, 4-{[6-fluoro-4-hydroxy-8-(methylamino)-2-oxo-1,2-dihydroquinoline-3-carbonyl]amino}-3-[(pyrrolidine-1-yl)methyl]benzoic acid-formate]
MIC [2]: 0.12 µg/mL
pIC50 (E. coli DNA gyrase [3]): 8.25
MIC (E. Coli ATCC 25922): 16 µg/mL

CNc1cc(F)cc2cc(C(=O)Nc3ccc(C(O)C(N)=O)cc3)c(=O)[nH]c12 (stereo not shown) [Example 158, N-[4-(2-amino-1-hydroxy-2-oxoethyl)phenyl]-6-fluoro-8-(methylamino)-2-oxo-1,2-dihydroquinoline-3-carboxamide]
MIC [2]: 0.03 µg/mL (≈ 0.0781 µM)
pIC50 (E. coli DNA gyrase [3]; [5]): 8.11
MIC (E. Coli ATCC 25922): > 16 µg/mL

CNc1cc(F)cc2cc(C(=O)Nc3ccc(C4OC(=O)NC4=O)cc3)c(=O)[nH]c12 (stereo not shown) [Example 159, N-[4-(2,4-Dioxo-1,3-oxazolidin-5-yl)phenyl]-6-fluoro-8-(methylamino)-2-oxo-1,2-dihydroquinoline-3-carboxamide]
MIC [2]: 0.002 µg/mL (≈ 0.00487 µM)
pIC50 (E. coli DNA gyrase [3]; [5]): 8.97
MIC (E. Coli ATCC 25922): > 16 µg/mL

O=C(O)c1ccc(NC(=O)c2cc3cccc(O)c3[nH]c2=O)cc1 [Example 160, 4-[(8-Hydroxy-2-oxo-1,2-dihydroquinoline-3-carbonyl)amino]benzoic Acid]
MIC [2]: > 4 µg/mL
pIC50 (E. coli DNA gyrase [3]; [5]): 4.93
MIC (E. Coli ATCC 25922): > 32 µg/mL

CCc1cccc2cc(C(=O)Nc3ccc(C(=O)O)cc3)c(=O)[nH]c12 [Example 161, 4-[(8-ethyl-2-oxo-1,2-dihydroquinoline-3-carbonyl)amino]benzoic acid]
MIC [2]: > 4 µg/mL
pIC50 (E. coli DNA gyrase [3]; [5]): 5.65
MIC (E. Coli ATCC 25922): > 32 µg/mL

CNc1cc(F)cc2cc(C(=O)Oc3ccc(C(=O)O)cc3)c(=O)[nH]c12 [Example 162, 4-{[6-fluoro-8-(methylamino)-2-oxo-1,2-dihydroquinoline-3-carbonyl]oxy}benzoic acid]
MIC [2]: > 1 µg/mL
pIC50 (E. coli DNA gyrase [3]; [5]): 5.46
MIC (E. Coli ATCC 25922): > 32 µg/mL

CNc1cc(F)cc2cc(CNc3ccc(C(=O)O)cc3)c(=O)[nH]c12 [Example 163, 4-([[6-Fluoro-8-(methylamino)-2-oxo-1,2-dihydroquinoline-3-yl]methyl]amino)benzoic Acid]
MIC [2]: > 1 µg/mL
pIC50 (E. coli DNA gyrase [3]; [5]): 5.68
MIC (E. Coli ATCC 25922): > 32 µg/mL

CNc1cc(F)cc2c(O)c(C(=O)Nc3ccc(C(=O)NS(=O)(=O)N(C)C)cc3CN3CCCCC3)c(=O)[nH]c12 [Example 164, N-{4-[(dimethyl-sulfamoyl)carbamoyl]-2-[(piperidine-1-yl)methyl]phenyl}-6-fluoro-4-hydroxy-8-(methylamino)-2-oxo-1,2-dihydroquinoline-3-carboxamide]
MIC [2]: 0.12 µg/mL (≈ 0.209 µM)
pIC50 (E. coli DNA gyrase [3]; [5]): 8.35
MIC (E. Coli ATCC 25922): 64 µg/mL (≈ 111 µM)

Nc1cccc2cc(C(=O)Nc3cccc(C(=O)O)c3)c(=O)[nH]c12 [Example 165, 3-[(8-Amino-2-oxo-1,2-dihydroquinoline-3-carbonyl)amino]benzoic acid-trifluoroacetate]
inhibition at 50 µM (E. coli DNA gyrase [1]; Method 1, at 50000 nM): 27%

O=C(O)c1ccc(NC(=O)c2cc3ccccc3[nH]c2=O)cc1 [Reference Example 1, 4-[(2-Oxo-1,2-dihydroquinoline-3-carbonyl)amino]benzoic Acid, reference compound]
MIC [2]: > 1 µg/mL
pIC50 (E. coli DNA gyrase [3]; [5]): 5.15
MIC (E. Coli ATCC 25922): > 64 µg/mL
